In patent EP0655506B1 (priority 1994, dated 1995):

Assays:
Assay in all cases: SDS activity gel analysis, incorporation of ddNMP relative to dNMP (Example 2)
Type in all cases: biochemical
[1] = target: T1, E. coli DNA polymerase I mutant Pol I C-K1, R D N A K T F I Y G F L Y G (Escherichia coli, UniProt P00582, A759T/F762Y/I760F/I765L/L764F/N761I/R755D/S756N); conditions: renatured enzyme in gel; 1.5 µM 4dNTPs with or without 30 µM ddTTP; 37 °C 4 hr
T1 construct: the large fragment of E. coli DNA polymerase I (Klenow fragment); made in house; crude lysate, renatured in gel
T1 sequence (P00582 324-928 R755D/S756N/A759T/I760F/N761I/F762Y/L764F/I765L): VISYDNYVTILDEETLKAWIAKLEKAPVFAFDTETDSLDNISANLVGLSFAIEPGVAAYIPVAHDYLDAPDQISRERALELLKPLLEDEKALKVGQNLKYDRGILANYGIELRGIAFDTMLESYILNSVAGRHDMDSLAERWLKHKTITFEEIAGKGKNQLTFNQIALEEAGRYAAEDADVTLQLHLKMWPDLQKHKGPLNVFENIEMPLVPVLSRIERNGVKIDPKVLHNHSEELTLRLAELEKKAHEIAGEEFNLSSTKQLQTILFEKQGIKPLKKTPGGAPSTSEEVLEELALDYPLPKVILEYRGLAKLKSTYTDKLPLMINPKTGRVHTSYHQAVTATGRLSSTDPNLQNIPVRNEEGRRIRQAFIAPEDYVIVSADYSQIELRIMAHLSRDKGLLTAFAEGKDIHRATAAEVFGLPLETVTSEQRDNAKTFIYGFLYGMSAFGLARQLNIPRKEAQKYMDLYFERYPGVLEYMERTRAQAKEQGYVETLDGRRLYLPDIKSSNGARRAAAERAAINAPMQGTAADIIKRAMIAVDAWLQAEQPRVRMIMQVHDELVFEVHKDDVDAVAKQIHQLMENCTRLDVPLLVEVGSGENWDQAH
Method: (§1) Mutant DNA polymerases are screened for their ability to incorporate dideoxynucleotides by SDS activity gel analysis. The procedure is a modification of that described by Spanos and Hübscher 91 Methods in Enzymology 263, 1983 and Karawya et al. 135 Analytical Biochemistry 318, 1983. Briefly, 10 ml of cells are induced for 4 to 6 hours and then pelleted. The cell pellet is resuspended in 0.3 ml 25 mM Tris HCl, pH 7.0, 5 mM EDTA. 20 µl of the resuspended cells are mixed with 40 µl of a solution of 1% SDS (sodium dodecyl sulfate), 2% mercaptoethanol, 30 % glycerol, 0.04% bromphenol blue, and 100 mM TrisHCl, pH 6.8. The mixtures are incubated at 37 °C for 5 min, and then 20 µl aliquots are loaded in duplicate onto two SDS polyacrylamide gels. The SDS polyacrylamide gels consist of a resolving gel that contains 8% polyacrylamide, 0.27% bisacrylamide, 190 mM TrisHCl, pH 8.8, 0.05% SDS, and 25 µg/ml denatured salmon sperm DNA, and a stacking gel that consists of 5% polyacrylamide, 0.17% bisacrylamide, 150 mM TrisHCl, pH 6.8, and 0.1% SDS. The two gels are electrophoresed at 100 V for 13 hr at a constant temperature of 13 °C in an electrophoresis buffer consisting of 190 mM TrisHCl and pH 8.8, 0.05% SDS.
(§2) After electrophoresis, the gels are washed over 8 hr in 4 changes of 500 ml each of Renaturation Buffer (50 mM Tris.HCl, pH 7.5, 5 mM magnesium acetate, 1 mM dithiothreitol, 40 mM KCI, 400 µg/ml bovine serum albumin, 16% glycerol and 0.95 mM EDTA) at 4 °C.
(§3) The renatured proteins are assayed for DNA polymerase activity by incubating each of the two gels in 6 ml of Renaturation Buffer, 1.5 µM 4dNTPs, 4 µl of [a-^32P]dATP (800 Ci/mmol, 10 mCi/ml), and 80 µg of purified thioredoxin. One of the mixtures also contains 30 µM ddTTP (a 20-fold molar excess over dTTP). The mixtures are incubated for 4 hr at 37 °C (70 °C for 2 hr for thermophilic DNA polymerases).
(§4) After incubation the gels are washed for 8 hr against four changes of 5% trichloracetic acid and 1% sodium pyrophosphate. The gels are then dried and autoradiographed.
(§5) To determine whether a mutant DNA polymerase is discriminating more or less against ddTTP, the intensities of the radioactive bands are compared on the two gels that were incubated in the presence and absence of ddTTP, and the ratio of the signal in the two bands for the unmodified DNA polymerase is compared with the ratio of the signal in the two bands for each of the mutants.

[2] = target: T2, E. coli DNA polymerase I mutant Pol I C-K2, R R S A K T F I Y G L I Y G (Escherichia coli, UniProt P00582, A759T/F762Y/I760F/N761I); conditions: renatured enzyme in gel; 1.5 µM 4dNTPs with or without 30 µM ddTTP; 37 °C 4 hr
T2 construct: the large fragment of E. coli DNA polymerase I (Klenow fragment); made in house; crude lysate, renatured in gel
T2 sequence (P00582 324-928 A759T/I760F/N761I/F762Y): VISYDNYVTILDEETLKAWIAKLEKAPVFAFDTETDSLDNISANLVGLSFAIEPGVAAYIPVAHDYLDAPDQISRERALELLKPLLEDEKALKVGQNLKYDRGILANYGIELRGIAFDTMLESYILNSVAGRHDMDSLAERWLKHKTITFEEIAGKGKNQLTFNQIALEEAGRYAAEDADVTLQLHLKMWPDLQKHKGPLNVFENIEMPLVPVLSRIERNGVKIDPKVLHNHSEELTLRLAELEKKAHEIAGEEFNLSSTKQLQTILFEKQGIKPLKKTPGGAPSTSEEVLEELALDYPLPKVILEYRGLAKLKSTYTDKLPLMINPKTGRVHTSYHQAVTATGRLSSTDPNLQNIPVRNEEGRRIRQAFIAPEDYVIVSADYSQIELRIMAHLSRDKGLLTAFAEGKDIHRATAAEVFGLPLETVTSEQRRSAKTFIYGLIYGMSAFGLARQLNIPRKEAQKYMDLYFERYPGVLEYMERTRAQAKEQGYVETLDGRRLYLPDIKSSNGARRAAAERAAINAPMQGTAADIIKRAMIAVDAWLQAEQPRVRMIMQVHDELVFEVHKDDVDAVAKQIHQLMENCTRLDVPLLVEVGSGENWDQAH
Method: as §1, §2, §3, §4, §5

[3] = target: T3, E. coli DNA polymerase I mutant Pol I C-K6 (F762Y), R R S A K A I N Y G L I Y G (Escherichia coli, UniProt P00582, F762Y)
T3 construct: the large fragment of E. coli DNA polymerase I (Klenow fragment); made in house; crude lysate, renatured in gel
T3 sequence (P00582 324-928 F762Y): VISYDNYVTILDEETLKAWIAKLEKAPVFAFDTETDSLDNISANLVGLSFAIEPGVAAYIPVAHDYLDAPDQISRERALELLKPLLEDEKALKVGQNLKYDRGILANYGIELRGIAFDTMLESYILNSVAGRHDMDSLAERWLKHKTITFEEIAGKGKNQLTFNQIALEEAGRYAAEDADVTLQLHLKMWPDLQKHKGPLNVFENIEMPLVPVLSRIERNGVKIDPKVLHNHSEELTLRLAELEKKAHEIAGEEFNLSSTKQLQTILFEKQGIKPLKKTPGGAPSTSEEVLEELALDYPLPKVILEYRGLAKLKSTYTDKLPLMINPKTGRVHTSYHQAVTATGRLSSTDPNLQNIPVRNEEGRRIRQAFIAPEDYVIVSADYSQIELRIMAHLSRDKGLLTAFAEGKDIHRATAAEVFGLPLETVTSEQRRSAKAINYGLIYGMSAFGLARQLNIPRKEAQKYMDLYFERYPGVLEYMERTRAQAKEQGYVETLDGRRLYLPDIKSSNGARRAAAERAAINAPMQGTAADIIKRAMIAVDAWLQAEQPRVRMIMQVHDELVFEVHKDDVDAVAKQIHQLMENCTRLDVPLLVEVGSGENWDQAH
Method: as §1, §2, §3, §4, §5

[4] = target: T4, Taq DNA polymerase mutant Tqa C-Q5 (F667Y), R R A A K T I N Y G V L Y G (Thermus aquaticus, UniProt P19821, F667Y); conditions: renatured enzyme in gel; 1.5 µM 4dNTPs with or without 30 µM ddTTP; 70 °C 2 hr
T4 construct: the large fragment of Taq DNA polymerase (KlenTaq or _Taq DNA polymerase); made in house; crude lysate, renatured in gel
T4 sequence (P19821 236-832 F667Y): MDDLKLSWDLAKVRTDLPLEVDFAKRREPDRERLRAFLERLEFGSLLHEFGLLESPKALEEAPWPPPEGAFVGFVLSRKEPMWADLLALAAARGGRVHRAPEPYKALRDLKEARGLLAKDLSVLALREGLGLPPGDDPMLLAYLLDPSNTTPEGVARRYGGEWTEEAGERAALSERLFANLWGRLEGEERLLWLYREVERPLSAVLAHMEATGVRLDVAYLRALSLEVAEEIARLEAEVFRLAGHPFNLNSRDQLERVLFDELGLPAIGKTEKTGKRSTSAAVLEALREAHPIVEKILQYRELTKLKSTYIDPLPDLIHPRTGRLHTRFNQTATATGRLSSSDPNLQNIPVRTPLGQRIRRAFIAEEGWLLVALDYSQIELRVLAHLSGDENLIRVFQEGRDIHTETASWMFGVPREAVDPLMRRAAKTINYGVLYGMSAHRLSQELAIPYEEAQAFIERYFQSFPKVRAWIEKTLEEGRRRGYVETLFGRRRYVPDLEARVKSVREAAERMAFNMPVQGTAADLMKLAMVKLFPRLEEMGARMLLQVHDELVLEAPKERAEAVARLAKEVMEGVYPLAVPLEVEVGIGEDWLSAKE
Method: as §1, §2, §3, §4, §5

[5] = target: T5, Taq DNA polymerase mutant Taq C-Q2, R R A A K T F I Y G F L Y G (Thermus aquaticus, UniProt P19821, F667Y/I665F/N666I/V669F); conditions: renatured enzyme in gel; 1.5 µM 4dNTPs with or without 30 µM ddTTP; 70 °C 2 hr
T5 construct: the large fragment of Taq DNA polymerase (KlenTaq or _Taq DNA polymerase); made in house; crude lysate, renatured in gel
T5 sequence (P19821 236-832 I665F/N666I/F667Y/V669F): as the sequence (P19821 236-832 F667Y) above, with I430F, N431I, V434F counted along it
Method: as §1, §2, §3, §4, §5

[6] = target: T6, E. coli DNA polymerase I mutant Pol I C-K4, R R S A K A I I Y G L I Y G (Escherichia coli, UniProt P00582, F762Y/N761I); conditions: renatured enzyme in gel; 1.5 µM 4dNTPs with or without 30 µM ddTTP; 37 °C 4 hr
T6 construct: the large fragment of E. coli DNA polymerase I (Klenow fragment); made in house; crude lysate, renatured in gel
Method: as §1, §2, §3, §4, §5

[7] = target: T7, E. coli DNA polymerase I mutant Pol I C-K3, R R S A K T F N F G L I Y G (Escherichia coli, UniProt P00582, A759T/I760F); conditions: renatured enzyme in gel; 1.5 µM 4dNTPs with or without 30 µM ddTTP; 37 °C 4 hr
T7 construct: the large fragment of E. coli DNA polymerase I (Klenow fragment); made in house; crude lysate, renatured in gel
T7 sequence (P00582 324-928 A759T/I760F): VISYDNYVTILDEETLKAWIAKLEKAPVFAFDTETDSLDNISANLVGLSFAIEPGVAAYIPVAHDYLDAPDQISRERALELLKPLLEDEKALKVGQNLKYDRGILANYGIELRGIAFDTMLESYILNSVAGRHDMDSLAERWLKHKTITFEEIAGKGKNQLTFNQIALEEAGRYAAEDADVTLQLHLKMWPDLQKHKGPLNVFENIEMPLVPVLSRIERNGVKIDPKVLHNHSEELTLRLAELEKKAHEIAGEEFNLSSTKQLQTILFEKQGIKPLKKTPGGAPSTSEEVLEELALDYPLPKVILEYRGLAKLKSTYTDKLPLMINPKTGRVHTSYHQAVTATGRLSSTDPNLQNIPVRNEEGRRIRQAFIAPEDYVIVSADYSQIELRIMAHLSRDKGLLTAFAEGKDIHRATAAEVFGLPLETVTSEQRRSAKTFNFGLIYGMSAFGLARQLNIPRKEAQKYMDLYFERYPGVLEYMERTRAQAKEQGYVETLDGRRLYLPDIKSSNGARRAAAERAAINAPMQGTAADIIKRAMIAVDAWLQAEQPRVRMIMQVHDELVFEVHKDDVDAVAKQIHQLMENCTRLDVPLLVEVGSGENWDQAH
Method: as §1, §2, §3, §4, §5

[8] = target: T8, Taq DNA polymerase, wild type (Taq WT), R R A A K T I N F G V L Y G (Thermus aquaticus, UniProt P19821); conditions: renatured enzyme in gel; 1.5 µM 4dNTPs with or without 30 µM ddTTP; 70 °C 2 hr
T8 construct: the large fragment of Taq DNA polymerase (KlenTaq or _Taq DNA polymerase); made in house; crude lysate, renatured in gel
T8 sequence (P19821 236-832 limits assumed): as the sequence (P19821 236-832 F667Y) above, with Y432F counted along it
Method: as §1, §2, §3, §4, §5

[9] = target: T9, Taq DNA polymerase mutant Taq C-Q3, R R A A K T I I Y G V L Y G (Thermus aquaticus, UniProt P19821, F667Y/N666I); conditions: renatured enzyme in gel; 1.5 µM 4dNTPs with or without 30 µM ddTTP; 70 °C 2 hr
T9 construct: the large fragment of Taq DNA polymerase (KlenTaq or _Taq DNA polymerase); made in house; crude lysate, renatured in gel
T9 sequence (P19821 236-832 N666I/F667Y): as the sequence (P19821 236-832 F667Y) above, with N431I counted along it
Method: as §1, §2, §3, §4, §5

[10] = target: T10, E. coli DNA polymerase I mutant Pol I C-K5, R R S A K A I I F G L I Y G (Escherichia coli, UniProt P00582, N761I); conditions: renatured enzyme in gel; 1.5 µM 4dNTPs with or without 30 µM ddTTP; 37 °C 4 hr
T10 construct: the large fragment of E. coli DNA polymerase I (Klenow fragment); made in house; crude lysate, renatured in gel
T10 sequence (P00582 324-928 N761I): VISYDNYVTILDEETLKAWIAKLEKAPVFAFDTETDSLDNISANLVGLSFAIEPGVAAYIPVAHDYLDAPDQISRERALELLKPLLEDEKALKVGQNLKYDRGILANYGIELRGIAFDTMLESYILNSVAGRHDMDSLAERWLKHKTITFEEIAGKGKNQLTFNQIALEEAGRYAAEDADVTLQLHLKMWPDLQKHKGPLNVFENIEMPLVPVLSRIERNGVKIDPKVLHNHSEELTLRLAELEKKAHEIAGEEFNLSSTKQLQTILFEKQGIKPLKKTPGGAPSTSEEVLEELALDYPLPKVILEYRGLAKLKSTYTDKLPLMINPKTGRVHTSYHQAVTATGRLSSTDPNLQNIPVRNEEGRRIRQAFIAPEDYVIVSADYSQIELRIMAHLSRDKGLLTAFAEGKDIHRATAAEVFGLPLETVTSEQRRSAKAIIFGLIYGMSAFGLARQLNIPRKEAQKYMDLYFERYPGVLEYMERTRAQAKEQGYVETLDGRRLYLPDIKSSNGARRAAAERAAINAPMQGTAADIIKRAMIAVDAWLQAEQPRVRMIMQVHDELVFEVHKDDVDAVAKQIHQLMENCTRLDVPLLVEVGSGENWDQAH
Method: as §1, §2, §3, §4, §5

[11] = target: T11, Taq DNA polymerase mutant Taq C-Q4, R R A A K T I I F G V L Y G (Thermus aquaticus, UniProt P19821, N666I); conditions: renatured enzyme in gel; 1.5 µM 4dNTPs with or without 30 µM ddTTP; 70 °C 2 hr
T11 construct: the large fragment of Taq DNA polymerase (KlenTaq or _Taq DNA polymerase); made in house; crude lysate, renatured in gel
T11 sequence (P19821 236-832 N666I): as the sequence (P19821 236-832 F667Y) above, with N431I, Y432F counted along it
Method: as §1, §2, §3, §4, §5

[12] = target: T12, Taq DNA polymerase mutant Taq C-Q1, R D N A K T I N F G V L Y G (Thermus aquaticus, UniProt P19821, A661N/R660D); conditions: renatured enzyme in gel; 1.5 µM 4dNTPs with or without 30 µM ddTTP; 70 °C 2 hr
T12 construct: the large fragment of Taq DNA polymerase (KlenTaq or _Taq DNA polymerase); made in house; crude lysate, renatured in gel
T12 sequence (P19821 236-832 R660D/A661N): as the sequence (P19821 236-832 F667Y) above, with R425D, A426N, Y432F counted along it
Method: as §1, §2, §3, §4, §5

[13] = target: T13, E. coli DNA polymerase I, wild type (Pol I WT), R R S A K A I N F G L I Y G (Escherichia coli, UniProt P00582)
T13 construct: the large fragment of E. coli DNA polymerase I (Klenow fragment); made in house; crude lysate, renatured in gel
T13 sequence (P00582 324-928): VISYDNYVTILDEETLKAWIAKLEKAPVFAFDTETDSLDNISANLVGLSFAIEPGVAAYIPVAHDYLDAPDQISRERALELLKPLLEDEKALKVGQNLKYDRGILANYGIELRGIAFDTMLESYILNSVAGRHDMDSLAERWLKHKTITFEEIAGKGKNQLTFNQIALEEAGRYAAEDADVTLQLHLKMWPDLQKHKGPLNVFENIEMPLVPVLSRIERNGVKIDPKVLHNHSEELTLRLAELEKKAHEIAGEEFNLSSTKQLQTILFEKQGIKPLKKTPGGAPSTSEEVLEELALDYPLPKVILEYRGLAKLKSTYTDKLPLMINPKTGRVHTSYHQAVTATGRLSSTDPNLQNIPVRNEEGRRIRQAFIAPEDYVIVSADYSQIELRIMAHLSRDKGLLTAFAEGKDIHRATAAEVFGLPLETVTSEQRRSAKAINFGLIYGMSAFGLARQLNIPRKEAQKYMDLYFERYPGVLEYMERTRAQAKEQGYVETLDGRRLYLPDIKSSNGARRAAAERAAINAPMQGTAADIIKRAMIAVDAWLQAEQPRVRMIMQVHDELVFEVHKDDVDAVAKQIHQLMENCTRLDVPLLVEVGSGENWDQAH
Method: as §1, §2, §3, §4, §5

[14] = renatured enzyme in gel, 1.5 µM 4dNTPs with or without 30 µM ddTTP, 37 °C 4 hr

SMILES: Cc1cn([C@H]2CC[C@@H](COP(=O)(O)OP(=O)(O)OP(=O)(O)O)O2)c(=O)[nH]c1=O [ddTTP]
- ddNTP Discrimination [1]: Low
- ddNTP Discrimination [2]: Low
- activity at 30 µM ([3]; read-out: intensity of the bands in the presence of ddTTP relative to the absence of ddTTP): < 5%
- ddNTP Discrimination [3, 14]: Low
- ddNTP Discrimination [4]: Low
- ddNTP Discrimination [5]: Low
- ddNTP Discrimination [6]: Low
- ddNTP Discrimination [7]: High
- ddNTP Discrimination [8]: High
- ddNTP Discrimination [9]: Low
- ddNTP Discrimination [10]: High
- ddNTP Discrimination [11]: High
- ddNTP Discrimination [12]: High
- intensity of the bands in the presence versus the absence of ddTTP ([13]; 30 µM ddTTP (20-fold molar excess over dTTP), 1.5 µM 4dNTPs, within a factor of two): approximately the same intensity
- ddNTP Discrimination [13, 14]: High
